Data taken from ChEMBL document CHEMBL3822389, “New insights into 3-(aminomethyl)naphthoquinones: Evaluation of cytotoxicity, electrochemical behavior and search for structure-activity correlation” (Bioorg Med Chem Lett, 2016).

Tests used:
[1] = tested on: MDA-MB-435; assay: Cytotoxicity against human MDA-MB-435 cells after 72 hrs by MTT assay; format: functional, cell-based
[2] = Cytotoxicity against human HCT8 cells after 72 hrs by MTT assay; format: functional, cell-based, HCT-8
[3] = Cytotoxicity against human SF295 cells after 72 hrs by MTT assay; format: functional, cell-based, SF-295
[4] = Cytotoxicity against human HL60 cells after 72 hrs by MTT assay; format: functional, cell-based, HL-60

Row | Structure (SMILES) | IC50 ([1]; Homo sapiens, MDA-MB-435, 72 h) | IC50 ([2]; Homo sapiens, HCT-8, 72 h) | IC50 ([3]; Homo sapiens, SF-295, 72 h) | IC50 ([4]; Homo sapiens, HL-60, 72 h) | IC50 ([3]; sf-295) | IC50 ([4]; hl-60) | IC50 ([1]; mda-mb-435) | IC50 ([2]; hct-8)
1 | CC(C)(C)OC(=O)NCCCNC(C1=C(O)C(=O)c2ccccc2C1=O)c1ccc([N+](=O)[O-])cc1 (stereo not drawn) | > 40 µM | > 40 µM | > 40 µM | > 40 µM |  |  |  | 
2 | O=C1C(O)=C(C(NCCCCl)c2ccccn2)C(=O)c2ccccc21 (stereo not drawn) | > 40 µM | > 40 µM | > 40 µM | > 40 µM |  |  |  | 
3 | CCCCNC(C1=C(O)C(=O)c2ccccc2C1=O)c1ccc([N+](=O)[O-])cc1 (stereo not drawn) |  |  | > 40 µM | > 40 µM |  |  |  | 
4 | O=C1C(O)=C(C(NCc2ccccc2)c2ccccc2O)C(=O)c2ccccc21 (stereo not drawn) | 18.3 µM | 14.4 µM |  |  | 11.6 µM | 4.6 µM |  | 
5 | O=C1C(O)=C(C(NCc2ccco2)c2ccccn2)C(=O)c2ccccc21 (stereo not drawn) | > 40 µM | 4.4 µM | 3.3 µM | 5.8 µM |  |  |  | 
6 | O=C1C(O)=C(C(NCCCCl)c2ccccc2)C(=O)c2ccccc21 (stereo not drawn) | > 40 µM | > 40 µM | > 40 µM | > 40 µM |  |  |  | 
7 | O=C1C(O)=C(C(NCc2ccccc2)c2cc(Br)ccc2O)C(=O)c2ccccc21 (stereo not drawn) |  |  | 17.4 µM | 8.4 µM |  |  | 25.2 µM | 14.9 µM
8 | CCCCCCCCCCNC(C1=C(O)C(=O)c2ccccc2C1=O)c1cc(Br)ccc1O (stereo not drawn) | > 40 µM | > 40 µM | > 40 µM | > 40 µM |  |  |  | 
9 | O=C1C(O)=C(C(NCc2ccco2)c2ccccc2O)C(=O)c2ccccc21 (stereo not drawn) |  |  |  |  | 1.8 µM | 1.2 µM | 2.9 µM | 3 µM
10 | CCCCCCCNC(C1=C(O)C(=O)c2ccccc2C1=O)c1ccccc1 (stereo not drawn) | > 40 µM | > 40 µM | > 40 µM | > 40 µM |  |  |  | 
11 | CCCCCCCCCCNC(C1=C(O)C(=O)c2ccccc2C1=O)c1cccc(O)c1 (stereo not drawn) | 31.1 µM | 25.8 µM | > 40 µM | 11.9 µM |  |  |  | 
12 | CC(C)(C)OC(=O)NCCNC(C1=C(O)C(=O)c2ccccc2C1=O)c1ccccc1O (stereo not drawn) | 26.3 µM | 10.8 µM | 15.9 µM | 19.2 µM |  |  |  | 
13 | CCCCCCCNC(C1=C(O)C(=O)c2ccccc2C1=O)c1ccccn1 (stereo not drawn) | > 40 µM | 1.6 µM | 1 µM | 1.8 µM |  |  |  | 
14 | CCCCNC(C1=C(O)C(=O)c2ccccc2C1=O)c1cc(C)ccc1O (stereo not drawn) |  |  |  |  | 29.6 µM | 6 µM | 26.5 µM | 17 µM
15 | CC(C)(C)OC(=O)NCCNCC1=C(O)C(=O)c2ccccc2C1=O | > 40 µM | > 40 µM | > 40 µM | > 40 µM |  |  |  | 
